Tests used:
[1] = tested on: HCT-116 colorectal cancer cells; assay: alamarBlue cell viability assay, HCT-116 cells; type: cell-based; conditions: Homo sapiens, 72 hr drug exposure
Description: (§1) Human HCT-116 colorectal cancer cells (CRC) were purchased from the American Type Culture Collection (Manassas, Va.) and grown in McCoy's 5a media (Sigma), following ATCC recommendations, in the presence of fetal bovine serum (10%), 2 mM L-glutamine and antibiotics (100 IU/ml penicillin and 100 μg/ml streptomycin, Sigma). Cells were maintained at 37° C., 5% CO2 atmosphere.
Cell viability was measured using the alamarBlue assay (Invitrogen). In brief, cells were plated in 96-well plates in triplicate at 5K cells per well and incubated at 37° C., 5% CO2 atmosphere for 24 hr prior to the addition of drug or vehicle (0.3% DMSO) to the culture medium. […] Fluorescence (560EX/590EM nM) was measured with a SpectraMax microplate reader (Molecular Devices) and the resulting data were used to calculate cell viability, normalized to vehicle control.
After HCT-116 cells were exposed to drug for 72 hr, cell viability was measured and results were fit to a four parameter logistic model (XLFit, ID Business Solutions).
(§2) Combinations between ganetespib and fluorouracil were then performed in HCT-116 cells concurrently based on the IC50 for each agent in matrix format with 54 combination pairs for each drug. The combined drugs, as well as each drug alone, were incubated with the cells for 3 days and the surviving fraction of cells relative to control was determined using the alamarBlue assay.

[2] = tested on: MOLT-4 cells; assay: alamarBlue cell viability assay, MOLT-4 cells; type: cell-based; conditions: Homo sapiens, 72 hr drug exposure, four parameter logistic fit
Description: as §1, with “MOLT-3, MOLT-4 and Jurkat T cell leukemia” for “HCT-116 colorectal cancer”, “cells” for “cells (CRC)”, “RPMI” for “McCoy's 5a media”
Cell viability was measured using the alamarBlue assay (Invitrogen). In brief, cells were plated in 96-well plates in triplicate at 20K, 15K or 15K cells per well for MOLT-3, MOLT-4 or Jurkat cells respectively, and incubated at 37° C., 5% CO2 atmosphere for 24 hr prior to the addition of drug or vehicle (0.3% DMSO) to the culture medium. After 72 hr, 10 μl/well Alamar Blue was added to the wells and incubated for an additional 3 hr at 37° C., 5% CO2 atmosphere. Fluorescence (560EX/590EM nM) was measured with a SpectraMax microplate reader (Molecular Devices) and the resulting data were used to calculate cell viability, normalized to vehicle control.
After MOLT-4 cells were exposed to drug for 72 hr, cell viability was measured and results were fit to a four parameter logistic model (XLFit, ID Business Solutions) shown in FIG. 1.
as §2, with “the nucleoside analog Ara-G” for “fluorouracil”, “MOLT-4” for “HCT-116”, “agent.” for “agent in matrix format with 54 combination pairs for each drug.”

[3] = tested on: KRAS mutant NSCLC cell lines; assay: cell viability in panel of KRAS mutant NSCLC cell lines; type: cell-based; conditions: Homo sapiens; across 15 KRAS mutant NSCLC cell lines in vitro
Description: For combinatorial analysis, cells were seeded in 96-well plates at a predetermined, optimum growth density for 24 h prior to the addition of drug or vehicle to the culture medium. Drug combinations were applied at a non-constant ratio over a range of concentrations for 72 or 96 hours. […] Cell viability was assessed by either AlamarBlue® (Invitrogen, Carlsbad, Calif.) or CellTiter-Glo® assays and normalized to vehicle controls. For each combination study, the level of growth inhibition (fraction affected) is plotted relative to vehicle control. Data are presented as one relevant combination point and the corresponding single agent data for each cell line tested.

[4] = tested on: KRAS substrates, including BRAF and CRAF; assay: destabilization of KRAS substrates in KRAS mutant NSCLC cells; type: cell-based, human; conditions: leading to inactivation of downstream effectors and programmed cell death
[5] = tested on: human KRAS mutant NSCLC tumor xenografts; assay: KRAS mutant NSCLC tumor xenografts in vivo; parameters: species or system mouse
[6] = tested on: NSCLC having a KRAS mutation; assay: Phase 2 trial with ganetespib; type: in vivo, human; conditions: at 8 weeks

IC50 [1] | IC50 [2] | SMILES | IC50 [3] | destabilization of KRAS substrates [4] | growth of tumor xenografts [5] | patients exhibiting tumor shrinkage [6]
~4500 nM | – | O=c1[nH]cc(F)c(=O)[nH]1 [5-FU, 5-fluorouracil, reference compound] | – | – | – | –
– | ~25 nM | Nc1ccn([C@@H]2O[C@H](CO)[C@@H](O)[C@@H]2O)c(=O)n1 [Ara-C, cytarabine] | – | – | – | –
– | ~2000 nM | COc1nc(N)nc2c1ncn2[C@@H]1O[C@H](CO)[C@@H](O)[C@@H]1O [Ara-G, nelarabine] | – | – | – | –
~32 nM | ~20 nM | CC(C)c1cc(-c2nnc(O)n2-c2ccc3c(ccn3C)c2)c(O)cc1O [ganetespib, 3-(2,4-dihydroxy-5-isopropyl-phenyl)-4-(1-methyl-indol-5-yl)-5-hydroxy-[1,2,4]triazole] | 24 nM | induced the destabilization | effectively suppressed the growth | > 60%

Source: patent US20140296176A1, “COMBINATION CANCER THERAPY WITH AN HSP90 INHIBITOR AND AN ANTIMETABOLITE” (Synta Pharmaceuticals Corp., priority 2011, published 2014)
